pIC50: −log10 of the molar value. Numbered stars: 1 amine (or outer) side, 2 acyl side, 3 side chain; on linkers, the order of the positions; unused ones are H or OH. Bridge positions count the residues as written; N and C are the ends. Square brackets hold non-standard residues; d marks the D form. Peptide text beside a SMILES is read from it. * marks the point of attachment. ξ: configuration not given here. Phe(4-COOH) = N[C@@H](Cc1ccc(C(=O)O)cc1)C(=O)O; Bip = N[C@@H](Cc1ccc(-c2ccccc2)cc1)C(=O)O; NH(CH2)14COOH = O=C(O)CCCCCCCCCCCCCCN*; Phe(3-Me) = Cc1cccc(C[C@H](N)C(=O)O)c1; βAsp = O=C(O)[C@H](CC(=O)[*:2])N[*:1]; Val(3-OH) = CC(C)(O)[C@H](N)C(=O)O; hArg = N=C(N)NCCCC[C@H](N)C(=O)O; 4Pal = N[C@@H](Cc1ccncc1)C(=O)O; Cha = N[C@@H](CC1CCCCC1)C(=O)O; Cit = NC(=O)NCCC[C@H](N)C(=O)O; Thr(3ξ) = CC(O)[C@H](N)C(=O)O; Pen = CC(C)(S)[C@H](N)C(=O)O; 12Ado = NCCCCCCCCCCCC(=O)O; Carboxymethyl = O=C(O)C*; Orn = NCCC[C@H](N)C(=O)O; Pra = C#CC[C@H](N)C(=O)O; Aun = NCCCCCCCCCCC(=O)O; Dab = NCC[C@H](N)C(=O)O; Dap = NC[C@H](N)C(=O)O; AEEA = NCCOCCOCC(=O)O

Consider twelve compounds from patent publication US20260022142A1, “MACROCYCLIC IMMUNOMODULATORS” (Bristol-Myers Squibb Company, priority 2022, published 2026).

The assay deals with T1, PD-1/PD-L1 interaction (PE-labeled human PD-L1-Ig binding to Jurkat cell line over-expressing human PD-1) (Homo sapiens, UniProt Q15116).
T1 construct: expressed in transfected cells; host or cells: Jurkat
T1 sequence (Q15116 25-288): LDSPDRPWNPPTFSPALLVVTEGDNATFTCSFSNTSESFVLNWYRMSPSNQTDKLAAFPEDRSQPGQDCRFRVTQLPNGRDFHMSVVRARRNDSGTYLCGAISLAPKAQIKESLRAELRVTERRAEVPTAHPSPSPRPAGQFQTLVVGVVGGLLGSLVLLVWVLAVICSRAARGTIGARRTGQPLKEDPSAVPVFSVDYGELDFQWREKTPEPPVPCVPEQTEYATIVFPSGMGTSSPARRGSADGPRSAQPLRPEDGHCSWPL
The experiment in a line: Jurkat-PD-1 Cell Binding High-Content Screening Assay (CBA). Conditions: Jurkat cell line over-expressing human PD-1; PE-labeled PD-L1-Ig 20 nM final; read-out: Jurkat hPD1-PDL1 IC50. Type of assay: cell-based. A digest of the protocol: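 Jurkat-hPD-1 cells, DMEM/10% FCS; cpd 2 h 37° C; PE-PD-L1-Ig 20 nM final, 1 h; 4% PFA fix + Hoechst 33342, 3× dPBS wash; high-content imaging read-out.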
What is called pIC50 is −log10 of the IC50, conventionally taken in molar units. As for `Cc1cccc(C[C@@H]2NC(=O)[C@H](CC(=O)O)NC(=O)[C@H](Cc3ccc(OCC(=O)O)cc3)NC(=O)[C@H](C)NC(=O)CSC[C@@H](C(=O)N[C@@H](CCN)C(=O)NCCOCCOCC(=O)NCCOCCOCC(=O)NCCCCCCCCCCCCCCC(=O)O)NC(=O)[C@H](Cc3cnc[nH]3)NC(=O)[C@H](C(C)(C)O)NC(=O)[C@H](CC3CCCCC3)NC(=O)[C@H](CCN)NC(=O)[C@@H](CC(C)C)NC(=O)[C@H](CCCN)NC(=O)[C@H](Cc3ccc(C(=O)O)cc3)NC(=O)[C@H](Cc3ccc(-c4ccccc4)cc3)NC(=O)[C@H](Cc3ccc(C(=O)O)cc3)NC2=O)c1` [Compound 3855] ({CH2CO}-AY(Carboxymethyl)D[Phe(3-Me)][Phe(4-COOH)][Bip][Phe(4-COOH)][Orn][dL][Dab][Cha][Val(3-OH)]HC[Dab][AEEA][AEEA]-{NH(CH2)14COOH}; thioether N-14), the pIC50 was 6.92.
For `C#CC[C@H](NC(=O)COCCOCCNC(=O)[C@H](CCN)NC(=O)[C@@H]1CSCC(=O)N[C@@H](Cc2ccncc2)C(=O)N[C@@H](Cc2ccc(OCC(=O)O)cc2)C(=O)N[C@@H](CC(=O)O)C(=O)N[C@@H](Cc2c[nH]c3ccccc23)C(=O)N[C@@H](C(C)C)C(=O)N[C@@H](Cc2ccc(-c3ccccc3)cc2)C(=O)N[C@@H]([C@@H](C)CC)C(=O)N[C@@H](CCCN)C(=O)N[C@H](CC(C)C)C(=O)N[C@@H](CCN)C(=O)N[C@@H](CC(C)C)C(=O)N[C@@H](C(C)C)C(=O)N[C@@H]([C@@H](C)O)C(=O)N1)C(=O)NCCCCCCCCCCC(=O)O` [Compound 1206] ({CH2CO}-[4Pal]Y(Carboxymethyl)DWV[Bip]I[Orn][dL][Dab]LVTC[Dab][AEEA][Pra][Aun]-OH; thioether N-14) the value was 7.70.
On to `CC(C)C[C@H]1NC(=O)[C@H](CCCN)NC(=O)[C@H](C(C)C)NC(=O)[C@H](Cc2ccc(-c3ccccc3)cc2)NC(=O)[C@H](C(C)C)NC(=O)[C@H](Cc2c[nH]c3ccccc23)NC(=O)[C@H](CC(=O)O)NC(=O)[C@H](Cc2ccc(OCC(=O)O)cc2)NC(=O)[C@H](CN)NC(=O)CSC[C@@H](C(=O)N[C@@H](CCCN)C(=O)NCCOCCOCC(=O)NCCCCCCCCCCC(=O)O)NC(=O)[C@H](C(C)O)NC(=O)[C@H](C(C)C)NC(=O)[C@H](CC2CCCCC2)NC(=O)[C@H](CCN)NC1=O` (stereo partly drawn) [Compound 3191] ({CH2CO}-[Dap]Y(Carboxymethyl)DWV[Bip]V[Orn][dL][Dab][Cha]V[Thr(3ξ)]C[Orn][AEEA][Aun]-OH; thioether N-14), for which the pIC50 was 7.94.
For `CC(=O)NCCCC[C@@H]1NC(=O)[C@H](Cc2ccc(-c3ccccc3)cc2)NC(=O)[C@H](Cc2ccc(O)cc2)NC(=O)[C@H](Cc2cccc(C)c2)NC(=O)[C@H](CC(=O)O)NC(=O)[C@H](Cc2ccc(OCC(=O)O)cc2)NC(=O)[C@H](CCCNC(=N)N)NC(=O)CSC[C@@H](C(=O)N[C@@H](CCN)C(=O)NCCCCCCCCCCC(=O)O)NC(=O)[C@H](C(C)O)NC(=O)[C@H](C(C)C)NC(=O)[C@H](CC2CCCCC2)NC(=O)[C@H](CCN)NC(=O)[C@@H](CC(C)C)NC(=O)[C@H](CCCN)NC1=O` (stereo partly drawn) [Compound 3508] ({CH2CO}-RY(Carboxymethyl)D[Phe(3-Me)]Y[Bip]K(Ac)[Orn][dL][Dab][Cha]V[Thr(3ξ)]C[Dab][Aun]-OH; thioether N-14) the value was 7.84; for `Cc1cccc(C[C@@H]2NC(=O)[C@H](CC(=O)O)NC(=O)[C@H](Cc3ccc(OCC(=O)O)cc3)NC(=O)[C@H](CN)NC(=O)CSC[C@@H](C(=O)N[C@@H](C)C(=O)N[C@@H](CC(=O)NCCOCCOCC(=O)N[C@@H](CCC(=O)O)C(=O)NCCOCCOCC(=O)NCCCCCCCCCCC(=O)O)C(=O)O)NC(=O)[C@H]([C@@H](C)O)NC(=O)[C@H](C(C)C)NC(=O)[C@H](CC3CCCCC3)NC(=O)[C@H](CCN)NC(=O)[C@@H](CC(C)C)NC(=O)[C@H](CCCN)NC(=O)[C@H](CCCNC(N)=O)NC(=O)[C@H](Cc3ccc(-c4ccccc4)cc3)NC(=O)[C@H](C(C)C)NC2=O)c1` [Compound 1020] ({CH2CO}-[Dap]Y(Carboxymethyl)D[Phe(3-Me)]V[Bip][Cit][Orn][dL][Dab][Cha]VTCA[βAsp][AEEA]E[AEEA][Aun]-OH; thioether N-14), 8.08; for `Cc1cccc(C[C@@H]2NC(=O)[C@H](CC(=O)O)NC(=O)[C@H](Cc3ccc(OCC(=O)O)cc3)NC(=O)[C@H](CN)NC(=O)CSC(C)(C)[C@@H](C(=O)N[C@@H](C)C(=O)N[C@@H](CCC(=O)O)C(=O)NCCCCCCCCCCC(=O)O)NC(=O)[C@H]([C@@H](C)O)NC(=O)[C@H](C(C)C)NC(=O)[C@H](CC3CCCCC3)NC(=O)[C@H](CCN)NC(=O)[C@@H](CC(C)C)NC(=O)[C@H](CCCN)NC(=O)[C@H](CCCNC(N)=O)NC(=O)[C@H](Cc3ccc(-c4ccccc4)cc3)NC(=O)[C@H](C(C)C)NC2=O)c1` [Compound 2782] ({CH2CO}-[Dap]Y(Carboxymethyl)D[Phe(3-Me)]V[Bip][Cit][Orn][dL][Dab][Cha]VT[Pen]AE[Aun]-OH; thioether N-14), 6.47.
For `C#CC[C@H](NC(=O)COCCOCCNC(=O)[C@H](Cc1cnc[nH]1)NC(=O)[C@@H]1CSCC(=O)N[C@@H](Cc2ccncc2)C(=O)N[C@@H](Cc2ccc(OCC(=O)O)cc2)C(=O)N[C@@H](CC(=O)O)C(=O)N[C@@H](Cc2c[nH]c3ccccc23)C(=O)N[C@@H](C(C)C)C(=O)N[C@@H](Cc2ccc(-c3ccccc3)cc2)C(=O)N[C@@H]([C@@H](C)CC)C(=O)N[C@@H](CCCN)C(=O)N[C@H](CC(C)C)C(=O)N[C@@H](CCN)C(=O)N[C@@H](CC(C)C)C(=O)N[C@@H](C(C)C)C(=O)N[C@@H]([C@@H](C)O)C(=O)N1)C(=O)NCCCCCCCCCCC(=O)O` [Compound 1210] ({CH2CO}-[4Pal]Y(Carboxymethyl)DWV[Bip]I[Orn][dL][Dab]LVTCH[AEEA][Pra][Aun]-OH; thioether N-14) the value was 7.65; for `Cc1cccc(C[C@@H]2NC(=O)[C@H](CC(=O)O)NC(=O)[C@H](Cc3ccc(OCC(=O)O)cc3)NC(=O)[C@H](CCCNC(=N)N)NC(=O)CN(C)C[C@@H](C(=O)N[C@@H](CCN)C(=O)NCCCCCCCCCCC(=O)O)NC(=O)[C@H]([C@@H](C)O)NC(=O)[C@H](C(C)C)NC(=O)[C@H](CC3CCCCC3)NC(=O)[C@H](CCN)NC(=O)[C@@H](CC(C)C)NC(=O)[C@H](CCCN)NC(=O)[C@H](Cc3ccc(OCC(=O)O)cc3)NC(=O)[C@H](Cc3ccc(-c4ccccc4)cc3)NC(=O)[C@H](Cc3ccc(OCC(=O)O)cc3)NC2=O)c1` [Compound 2159], 7.02; for `CC(=O)NCCCC[C@@H]1NC(=O)[C@H](Cc2ccc(-c3ccccc3)cc2)NC(=O)[C@H](C(C)C)NC(=O)[C@H](Cc2cccc(C)c2)NC(=O)[C@H](CC(=O)O)NC(=O)[C@H](Cc2ccc(OCC(=O)O)cc2)NC(=O)[C@H](CN)NC(=O)CSC[C@@H](C(=O)N[C@@H](CCN)C(=O)N[C@@H](CO)C(=O)NCCCCCCCCCCCC(=O)O)NC(=O)[C@H](CCCN)NC(=O)[C@H](C(C)C)NC(=O)[C@H](CC2CCCCC2)NC(=O)[C@H](CCN)NC(=O)[C@@H](CC(C)C)NC(=O)[C@H](CCCN)NC1=O` [Compound 3590] ({CH2CO}-[Dap]Y(Carboxymethyl)D[Phe(3-Me)]V[Bip]K(Ac)[Orn][dL][Dab][Cha]V[Orn]C[Dab]S[12Ado]-OH; thioether N-14), 8.19.
Consider `CC(C)C[C@H]1NC(=O)[C@H](CCCN)NC(=O)[C@H](C(C)C)NC(=O)[C@H](Cc2ccc(-c3ccccc3)cc2)NC(=O)[C@H](C(C)C)NC(=O)[C@H](Cc2c[nH]c3ccccc23)NC(=O)[C@H](CC(=O)O)NC(=O)[C@H](Cc2ccc(OCC(=O)O)cc2)NC(=O)[C@H](CN)NC(=O)CSC[C@@H](C(=O)NCCOCCOCC(=O)N[C@@H](CCN)C(=O)NCCCCCCCCCCC(=O)O)NC(=O)[C@H](CCCCN)NC(=O)[C@H](C(C)C)NC(=O)[C@H](CC2CCCCC2)NC(=O)[C@H](CCN)NC1=O` [Compound 2541] ({CH2CO}-[Dap]Y(Carboxymethyl)DWV[Bip]V[Orn][dL][Dab][Cha]VKC[AEEA][Dab][Aun]-OH; thioether N-14), for which the pIC50 was 8.12.
The same measure for `CC[C@H](C)[C@@H]1NC(=O)[C@H](Cc2ccc(-c3ccccc3)cc2)NC(=O)[C@H](C(C)C)NC(=O)[C@H](Cc2cccc(C)c2)NC(=O)[C@H](CC(=O)O)NC(=O)[C@H](Cc2ccc(OCC(=O)O)cc2)NC(=O)[C@H](CN)NC(=O)CSC[C@@H](C(=O)N[C@@H](CCN)C(=O)NCCOCCOCC(=O)NCCCCCCCCCCC(=O)O)NC(=O)[C@H](CCCNC(=N)N)NC(=O)[C@H](C(C)C)NC(=O)[C@H](CC2CCCCC2)NC(=O)[C@H](CCN)NC(=O)[C@@H](CC(C)C)NC(=O)[C@H](CCCN)NC1=O` [Compound 2636] ({CH2CO}-[Dap]Y(Carboxymethyl)D[Phe(3-Me)]V[Bip]I[Orn][dL][Dab][Cha]VRC[Dab][AEEA][Aun]-OH; thioether N-14): 7.65; for `CC(C)C[C@H]1NC(=O)[C@H](CCCN)NC(=O)[C@H](C(C)C)NC(=O)[C@H](Cc2ccc(-c3ccccc3)cc2)NC(=O)[C@H](C(C)C)NC(=O)[C@H](Cc2c[nH]c3ccccc23)NC(=O)[C@H](CC(=O)O)NC(=O)[C@H](Cc2ccc(OCC(=O)O)cc2)NC(=O)[C@H](CCCCNC(=N)N)NC(=O)CSC[C@@H](C(=O)NCC(=O)NCCOCCOCC(=O)N[C@@H](CCCN)C(=O)NCCCCCCCCCCC(=O)O)NC(=O)[C@H](C(C)O)NC(=O)[C@H](C(C)C)NC(=O)[C@H](CC2CCCCC2)NC(=O)[C@H](CCN)NC1=O` (stereo partly drawn) [Compound 3130] ({CH2CO}-[hArg]Y(Carboxymethyl)DWV[Bip]V[Orn][dL][Dab][Cha]V[Thr(3ξ)]CG[AEEA][Orn][Aun]-OH; thioether N-14): 7.78.
